Measurements published in patent US12514938B2, “Fibroblast activation protein targeting peptides” (PERSPECTIVE THERAPEUTICS, INC., priority 2023, dated 2026).
*1 amine or outer side, *2 acyl side, *3 side chain or, on linkers, in order; H or OH if unused. Where a SMILES comes first, the peptide text is derived from it. Bridges are numbered along the chain shown (N, C = ends). The star is where a group is joined. X1 = NC(=O)CN1CCN(CC(=O)O)CCN(CC(=O)*)CCN(CC(=O)O)CC1; oXylylene = c1ccc(C[*:2])c(C[*:1])c1; PEG2 = NCCOCCOCCC(=O)O

What was measured:
Assay type in all cases: biochemical
[1] = target: T1, Human Fibroblast Activation Protein (FAP) (Homo sapiens, UniProt Q12884); test: Enzyme inhibition assay against human FAP (substrate Z-GP-AMC), Example 1; conditions: human FAP 5 ng/well, 50 μM Z-GP-AMC; Ki from IC50 by Cheng-Prusoff
T1 sequence (Q12884 1-760): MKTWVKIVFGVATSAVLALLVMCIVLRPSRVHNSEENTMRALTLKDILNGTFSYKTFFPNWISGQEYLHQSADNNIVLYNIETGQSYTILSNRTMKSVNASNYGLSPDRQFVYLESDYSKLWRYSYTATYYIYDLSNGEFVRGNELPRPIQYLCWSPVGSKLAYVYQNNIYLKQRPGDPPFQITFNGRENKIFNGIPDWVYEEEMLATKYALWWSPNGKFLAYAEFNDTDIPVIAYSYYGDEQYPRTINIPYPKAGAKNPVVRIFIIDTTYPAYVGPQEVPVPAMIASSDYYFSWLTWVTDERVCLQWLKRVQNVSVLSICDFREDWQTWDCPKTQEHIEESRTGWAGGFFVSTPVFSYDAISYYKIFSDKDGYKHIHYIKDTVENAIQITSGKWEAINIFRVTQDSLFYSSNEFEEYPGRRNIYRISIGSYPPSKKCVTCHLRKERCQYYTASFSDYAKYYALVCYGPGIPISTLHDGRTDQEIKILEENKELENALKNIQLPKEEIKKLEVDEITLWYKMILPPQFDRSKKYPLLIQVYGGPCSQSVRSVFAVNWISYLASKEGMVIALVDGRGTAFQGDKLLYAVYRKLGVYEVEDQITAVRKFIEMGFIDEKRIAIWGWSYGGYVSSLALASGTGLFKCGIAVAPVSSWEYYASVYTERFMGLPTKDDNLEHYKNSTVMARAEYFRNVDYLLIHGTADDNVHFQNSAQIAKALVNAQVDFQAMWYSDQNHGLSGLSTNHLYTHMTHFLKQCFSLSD
Method in brief: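 FAP (5 ng/well) preincubated 10 min at RT with peptide (10^−6 to 10^−12), then 50 μM Z-GP-AMC added for 1 h at RT, protected from light. Buffer 50 mM Tris-HCl, 1 M NaCl, 1 mg/mL BSA, pH 7.5; fluorescence at ex/em 360/460. IC50 from non-linear regression, converted to Ki via Cheng-Prusoff using known substrate Km.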

mouse FAP = target: T2, mouse FAP (Mus musculus, UniProt P97321); test: Enzyme inhibition assay, binding specificity of VMT-FAP-2-59 (Example 3); conditions: 50 μM Z-GP-AMC
T2 sequence (P97321 1-761): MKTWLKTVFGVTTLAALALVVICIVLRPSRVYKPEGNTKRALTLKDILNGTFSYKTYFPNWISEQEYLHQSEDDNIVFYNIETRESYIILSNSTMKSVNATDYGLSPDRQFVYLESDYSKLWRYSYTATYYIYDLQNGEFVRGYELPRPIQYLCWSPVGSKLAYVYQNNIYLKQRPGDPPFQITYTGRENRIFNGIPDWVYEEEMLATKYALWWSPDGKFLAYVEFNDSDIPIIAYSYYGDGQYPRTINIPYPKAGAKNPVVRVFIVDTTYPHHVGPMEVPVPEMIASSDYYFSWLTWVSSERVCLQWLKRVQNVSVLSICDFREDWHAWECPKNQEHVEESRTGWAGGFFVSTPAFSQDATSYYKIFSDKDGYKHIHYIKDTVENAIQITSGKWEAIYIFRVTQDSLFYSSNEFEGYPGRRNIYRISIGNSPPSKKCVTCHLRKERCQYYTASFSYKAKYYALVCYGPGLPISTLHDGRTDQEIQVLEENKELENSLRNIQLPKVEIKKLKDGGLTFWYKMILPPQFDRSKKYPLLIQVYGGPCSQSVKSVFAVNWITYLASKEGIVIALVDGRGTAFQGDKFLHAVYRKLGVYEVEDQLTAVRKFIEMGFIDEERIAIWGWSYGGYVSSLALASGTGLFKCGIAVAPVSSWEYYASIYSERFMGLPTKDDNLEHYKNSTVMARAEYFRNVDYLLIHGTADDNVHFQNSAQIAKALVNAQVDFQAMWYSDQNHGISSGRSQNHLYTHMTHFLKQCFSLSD
Description: (§1) The enzyme inhibition assay was performed to determine inhibitor constant (i.e., Ki) values against human FAP, mouse FAP, human dipeptidyl peptidase 4 (DPPIV) and human prolyl endopeptidase (PREP). Z-GP-AMC was used as substrate for human FAP, mouse FAP and human PREP. GP-AMC was used as substrate for human DPPIV. To perform the assay, VMT-FAP-2-59 at varying concentrations (i.e. 10^−6 to 10^−12) were incubated with 5 ng hFAP, 5 ng mFAP, 2.5 ng DPPIV, or 5 ng PREP in a black 96-well plate for 10 minutes at RT on a shaker plate. The substrate was added to give a final concentration of 50 μM for Z-GP-AMC and GP-AMC. The total reaction volume per well was 100 μL The reaction was allowed to incubate at RT on a shaker plate for 1 hour protected from light, and then fluorescence was read with a BioTek Synergy LX plate reader at an ex/em (360/40 and 460/40). Experiments were performed in at least duplicate. Buffer only, buffer/enzymes, buffer/substrate and enzyme only were included as controls. Data was plotted in GraphPad Prism and non-linear regression used to calculate IC50 values. Binding kinetics (Kd) of VMT-FAP-2-59 against human FAP, human DPPIV and human PREP were also determined by grating-coupled interferometry (GCI). hFAP, hDPPIV and hPREP proteins were fixed on PCH (N=3) chips or PCP (N=2). […] On PCP chips, binding affinity of VMT-FAP-2-29 to hFAP was determined from 39 pM to 20 nM. Binding affinity to hDPPIV and hPREP was determined at concentration from 39 pM to 50 nM.

[2] = target: human dipeptidyl peptidase 4 (DPPIV) (Homo sapiens, UniProt P27487); test: Enzyme inhibition assay, binding specificity of VMT-FAP-2-59 (Example 3, substrate GP-AMC); conditions: 50 μM GP-AMC
Sequence of human dipeptidyl peptidase 4 (DPPIV) (P27487 whole entry): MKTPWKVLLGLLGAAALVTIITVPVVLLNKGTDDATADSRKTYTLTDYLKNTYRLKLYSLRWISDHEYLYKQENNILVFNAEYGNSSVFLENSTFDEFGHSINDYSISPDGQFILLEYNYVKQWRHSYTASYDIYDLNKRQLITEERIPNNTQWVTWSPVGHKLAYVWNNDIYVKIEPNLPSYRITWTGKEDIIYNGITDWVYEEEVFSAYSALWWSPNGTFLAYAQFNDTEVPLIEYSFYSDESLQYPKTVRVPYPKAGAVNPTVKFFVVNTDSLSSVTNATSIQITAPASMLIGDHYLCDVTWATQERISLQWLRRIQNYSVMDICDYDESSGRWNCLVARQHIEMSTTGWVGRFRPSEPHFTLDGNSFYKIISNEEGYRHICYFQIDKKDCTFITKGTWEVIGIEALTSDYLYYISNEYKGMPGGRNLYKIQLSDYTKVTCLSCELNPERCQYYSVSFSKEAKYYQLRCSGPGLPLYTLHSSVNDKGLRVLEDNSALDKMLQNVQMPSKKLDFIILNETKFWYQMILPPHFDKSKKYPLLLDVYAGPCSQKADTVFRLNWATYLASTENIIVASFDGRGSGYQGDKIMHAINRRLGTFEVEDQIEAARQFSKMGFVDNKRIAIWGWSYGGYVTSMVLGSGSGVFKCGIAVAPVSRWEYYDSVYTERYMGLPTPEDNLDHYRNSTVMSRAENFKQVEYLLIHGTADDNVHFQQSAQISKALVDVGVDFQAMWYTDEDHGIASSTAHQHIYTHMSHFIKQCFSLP
Description: as §1, with “Binding affinity to hDPPIV and hPREP was determined at concentration from 39 pM to 50 nM.” left out

`C[C@@H](O)[C@@H]1NC(=O)[C@@H](NC(=O)CCOCCOCCNC(=O)CN2CCN(CC(=O)O)CCN(CC(N)=O)CCN(CC(=O)O)CC2)CSCc2ccccc2CSC[C@@H](C(N)=O)NC(=O)[C@H](Cc2c[nH]c3ccccc23)NC(=O)[C@H](Cc2c[nH]c3ccccc23)NC(=O)[C@H](CCC(N)=O)NC(=O)[C@H](CCC(=O)O)NC(=O)[C@H](Cc2c[nH]c3ccccc23)NC(=O)[C@@H]2CCCN2C1=O` [VMT-FAP-2-59, PSC-PEG2-[C(oXdB)TPWEQWWC]-NH2] ({X1-PEG2}-CTPWEQWWC-NH2; linker 1-9 via oXylylene) was tested. Which Ki [1] did it give?
The Ki was 0.36 nM.

And the Ki (mouse FAP)?
Its Ki is 4.2 nM.

What about the Ki [2] of the same compound?
The Ki was “No binding”.
